Here are results for 4 compounds from patent US11185549B2, “Combination of a PI3K-inhibitor with an androgen receptor antagonist” (priority 2017, dated 2021).

The subject of assay [1] is VCaP human prostate cancer cells. In words: VCaP proliferation assay (CellTiter-Glo), single agents and combination index. It counts as cell-based. The procedure: (§1) Cell lines derived from human prostate cancer metastasis were used (Table 1).
(§2) After one day, the cells were treated with R1881 (10 nM) and 1 nM to 10 μM compounds (day 0). Cell number was determined following addition of CellTiter-Glo® (Promega) at day 0 and day 6. Luminescence was determined in a Victor X3 device (PerkinElmer). The inhibition of cell growth was calculated by normalization with respect to the luminescence reading (cell number) measured at the end of the experiment for cells treated with R1881 alone compared to the fluorescence reading (cell number) measured at the end of the experiment for DMSO-treated cells. […] After one day, the cells were treated with R1881 (0.1 nM) and 1 nM to 10 μM compounds (day 0). Cell number was determined following addition of CellTiter-Glo® (Promega) at day 0 and day 6. Luminescence was determined in a Victor X3 device […]. The inhibition of cell growth was calculated by normalization with respect to the luminescence reading (cell number) measured at the end of the experiment for cells treated with R1881 alone compared to the fluorescence reading (cell number) measured at the start of the experiment for DMSO-treated cells.
(§3) The Combination Index (CI) was determined for the two compound ratios closest to the ratio of the respective IC50 values of each compound alone.

The subject of assay [2] is LAPC-4 human prostate cancer cells. In words: LAPC-4 proliferation assay (CellTiter-Glo), single agents and combination index. The class given is cell-based. The procedure:
as §1, §2, §3
In general terms: Cellular ATP, detected with luciferase, serves as a proxy for viable cell number.

The target of assay [3] is mTOR (Homo sapiens, UniProt P42345). To be noted: cited from earlier work.
Assay [4] deals with PI3K isoforms. To be noted: cited from earlier work.
The test system of assay [5] is androgen receptor. To be noted: cited from earlier work.
For assay [6], the target named is androgen receptor (Homo sapiens, UniProt P10275). To be noted: cited from earlier work.
Setting [7] is: Homo sapiens, VCaP, 144 h, VCaP cells, single agent, R1881 0.1 nM, day 6, read-out: Compound A IC50.
The mark [8] stands for this setting: Homo sapiens, LAPC4, 144 h, LAPC-4 cells, single agent, R1881 10 nM, day 6, read-out: Compound A IC50.

Values joined by “and” are separate entries in the source; they are usually repeats but may differ in a detail not shown here. Equal values may be shown once. Where a name gives a salt, the structure may show the parent alone. Read-outs that look alike come from different tables or passages of the source.

One may read the IC50 as the concentration that gives 50% inhibition.

Sequence of androgen receptor (Homo sapiens, UniProt P10275) (P10275 whole entry, species assumed): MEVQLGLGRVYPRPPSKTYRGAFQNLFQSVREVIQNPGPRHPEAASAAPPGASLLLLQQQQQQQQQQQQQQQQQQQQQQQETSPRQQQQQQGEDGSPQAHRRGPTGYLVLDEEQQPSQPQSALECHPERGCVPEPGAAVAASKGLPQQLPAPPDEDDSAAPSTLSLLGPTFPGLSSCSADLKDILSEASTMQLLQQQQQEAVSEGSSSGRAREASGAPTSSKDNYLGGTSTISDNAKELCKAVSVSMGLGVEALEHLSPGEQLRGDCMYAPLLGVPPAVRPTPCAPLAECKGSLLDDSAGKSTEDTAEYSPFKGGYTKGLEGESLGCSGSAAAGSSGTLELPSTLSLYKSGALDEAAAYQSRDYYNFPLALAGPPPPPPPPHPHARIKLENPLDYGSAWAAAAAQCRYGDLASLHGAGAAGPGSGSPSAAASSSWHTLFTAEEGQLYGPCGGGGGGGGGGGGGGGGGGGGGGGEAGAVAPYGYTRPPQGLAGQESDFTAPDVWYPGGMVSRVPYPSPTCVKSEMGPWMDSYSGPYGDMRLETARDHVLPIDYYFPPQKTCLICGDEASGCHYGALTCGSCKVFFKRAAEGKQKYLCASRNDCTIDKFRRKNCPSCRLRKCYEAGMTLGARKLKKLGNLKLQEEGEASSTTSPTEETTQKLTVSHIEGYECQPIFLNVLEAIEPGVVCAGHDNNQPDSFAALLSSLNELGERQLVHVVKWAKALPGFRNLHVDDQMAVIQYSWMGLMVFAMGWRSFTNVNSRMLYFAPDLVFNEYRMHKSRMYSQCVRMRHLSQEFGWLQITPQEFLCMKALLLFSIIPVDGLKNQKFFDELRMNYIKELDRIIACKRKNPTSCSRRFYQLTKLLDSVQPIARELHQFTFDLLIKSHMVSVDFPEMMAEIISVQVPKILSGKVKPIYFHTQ

As to `COc1c(OCCCN2CCOCC2)ccc2c1N=C(NC(=O)c1cnc(N)nc1)N1CCN=C21` [Copanlisib, 2-amino-N-[7-methoxy-8-(3-morpholin-4-ylpropoxy)-2,3-dihydroimidazo[1,2-c]quinazolin-5-yl]pyrimidine-5-carboxamide dihydrochloride], the IC50 in assay [1] (setting [7]) turned out to be 9 nM; in assay [2] (setting [8]) it was 41 nM; in assay [2] (LAPC-4 cells, single agent, R1881 10 nM, day 6, dihydrochloride, read-out: Compound A IC50), 49 nM.
For `Cc1c(CN2CCN(C(=O)[C@H](C)O)CC2)sc2c(N3CCOCC3)nc(-c3cnc(N)nc3)nc12` [Apitolisib], the IC50 in assay [1] (setting [7]) is 52 nM; in assay [2] (setting [8]), 12 nM; in assay [2] (LAPC-4 cells, single agent, R1881 10 nM, day 6, read-out: Compound A IC50), 13 nM. Moreover, the “activity against mTOR” value in assay [3] is “low nanomolar”. In addition, the “activity against PI3K isoforms” value in assay [4] is “low nanomolar”.
Turning to `CC(O)c1cc(C(=O)N[C@@H](C)Cn2ccc(-c3ccc(C#N)c(Cl)c3)n2)[nH]n1` (some centres unmarked) [Darolutamide], the half-maximal inhibitory concentration (IC50) in assay [1] (Homo sapiens, VCaP, 144 h, read-out: Compound B IC50, VCaP cells, single agent, R1881 0.1 nM, day 6) was 350 nM; in assay [1] (read-out: Compound B IC50, VCaP cells, single agent, R1881 0.1 nM, day 6), 417 nM and 557 nM; in assay [2] (Homo sapiens, LAPC4, 144 h, read-out: Compound B IC50, LAPC-4 cells, single agent, R1881 10 nM, day 6) it was 263 nM; in assay [2] (read-out: Compound B IC50, LAPC-4 cells, single agent, R1881 10 nM, day 6), 366 nM. The “binding affinity for the androgen receptor” value in assay [5] was “low nanomolar”. Moreover, in assay [6], the “inhibition of transactivation function” value is given as “high inhibition”.
Consider `Cn1c(=O)n(-c2ccc(C(C)(C)C#N)cc2)c2c3cc(-c4cnc5ccccc5c4)ccc3ncc21` [Dactolisib], for which, in assay [1] (setting [7]), the IC50 is 26 nM. Moreover, the “activity against mTOR” value in assay [3] is on record as “low nanomolar”. The “activity against PI3K isoforms” value in assay [4] is reported as “low nanomolar”.
